Reference: publication doi:10.1101/2024.08.25.609621 (bioRxiv, 2024)
Like-named read-outs stand apart in the source and are kept apart here.

Target: SARS-CoV-2 NSP3 macrodomain (Mac1), P43 crystal form (Severe acute respiratory syndrome coronavirus 2, UniProt P0DTD1)
Type: binding
Details: for 1-BDC: PanDDA background density correction; for Total number of conformations: ligand conformations modeled in Mac1 crystal structure; for X-ray crystallography: Binding site: site where the ligand is bound in the X-ray crystal structure
[1] = crystal soak 10 mM, P43 crystals
[2] = occupancy estimate from PanDDA 1-BDC
[3] = X-ray crystal structure determined (TRUE)
[4] = site of ligand in X-ray crystal structure
[5] = crystal soak, soak concentration 10 mM
[6] = crystal soak, soak concentration 10 mM, TRUE = ligand hit
[7] = crystal structure with Mac1 determined (TRUE)
[8] = site of ligand in Mac1 crystal structure

Row | SMILES | 1-BDC | Pandda run, overall: Hit [1] | Pandda run, overall: Modeled [1] | PanDDA run, DMSO background map: 1-BDC (crystal soak 10 mM) | PanDDA run, DMSO background map: Hit (crystal soak 10 mM) | Total number of conformations | 2*(1-BDC) (%) [2] [%] | X-ray crystal structure [3] | Binding site [4] | further results
1 | CC1CCN(c2ncnc3[nH]ccc23)C1CO (centres unmarked) [AVI-3655] | 0.21 | TRUE | TRUE | 0.21 | TRUE | 1 | 42 |  |  | X-ray crystallography: Binding site: Adenosine
2 | CCC(Nc1ncnc2[nH]ccc12)C(C)(C)O (centres unmarked) [AVI-3667] | 0.14 | TRUE | TRUE | 0.14 | TRUE | 1 | 28 | TRUE | Adenosine | 
3 | OCC(CC1CCCCC1)Nc1ncnc2[nH]ccc12 (centres unmarked) [AVI-3690] | 0.12 | TRUE | TRUE | 0.12 | TRUE | 1 | 24 | TRUE | Adenosine | Pandda run, overall: Modeling comment [1]: Weak density for alternative ligand conformation
4 | O=C(O)C(F)(F)F.OC1c2ccccc2CC1Nc1ncnc2[nH]ccc12 (centres unmarked) [AVI-3634] |  |  |  |  |  |  |  |  |  | Pandda run, overall: Modeling comment [5]: TFA only
5 | NC(=O)C1(O)CCN(c2ncnc3[nH]ccc23)C1 (centres unmarked) [AVI-611] | 0.22 |  |  |  |  | 2 | 44 |  |  | Pandda run, overall: Modeled [5]: TRUE; Pandda run, overall: Hit [6]: TRUE; X-ray crystal structure [7]: TRUE; Binding site [8]: Adenosine; PanDDA run, DMSO background map: 1-BDC (soak concentration 10 mM): 0.22; PanDDA run, DMSO background map: Hit (soak concentration 10 mM): TRUE
6 | OCC(CC(O)c1ccccc1)Nc1ncnc2[nH]ccc12 (centres unmarked) [AVI-3642] | 0.17 | TRUE | TRUE | 0.17 | TRUE | 1 | 34 | TRUE | Adenosine | 
7 | OCC(CC1CCCO1)Nc1ncnc2[nH]ccc12 (centres unmarked) [AVI-3660] | 0.23 | TRUE | TRUE | 0.23 | TRUE | 1 | 46 | TRUE | Adenosine | 
8 | O[C@@H]1CN(c2ncnc3[nH]ccc23)C[C@H]1F [AVI-616] | 0.2 |  |  |  |  | 1 | 40 |  |  | Pandda run, overall: Modeled [5]: TRUE; Pandda run, overall: Hit [6]: TRUE; X-ray crystal structure [7]: TRUE; Binding site [8]: Adenosine; PanDDA run, DMSO background map: 1-BDC (soak concentration 10 mM): 0.2; PanDDA run, DMSO background map: Hit (soak concentration 10 mM): TRUE
9 | Cc1ccc(CC(CO)Nc2ncnc3[nH]ccc23)cc1 (centres unmarked) [AVI-3683] | 0.15 | TRUE | TRUE | 0.15 | TRUE | 2 | 30 | TRUE | Adenosine | 
10 | CCC(CO)Nc1ncnc2[nH]ccc12 (centres unmarked) [AVI-3643] | 0.16 | TRUE | TRUE | 0.16 | TRUE | 1 | 32 | TRUE | Adenosine | 
11 | OCC(Cc1c[nH]c2ccccc12)Nc1ncnc2[nH]ccc12 (centres unmarked) [AVI-3650] | 0.15 | TRUE | TRUE | 0.15 | TRUE | 2 | 30 | TRUE | Adenosine | 
12 | OCC(COCc1ccccc1)Nc1ncnc2[nH]ccc12 (centres unmarked) [AVI-3709] | 0.19 |  |  |  |  | 2 | 38 | TRUE | Adenosine | Pandda run, overall: Modeled [5]: TRUE; Pandda run, overall: Hit [6]: TRUE; PanDDA run, DMSO background map: 1-BDC (soak concentration 10 mM): 0.19; PanDDA run, DMSO background map: Hit (soak concentration 10 mM): TRUE
13 | Cc1ccccc1CC(CO)Nc1ncnc2[nH]ccc12 (centres unmarked) [AVI-3674] | 0.19 | TRUE | TRUE | 0.19 | TRUE | 1 | 38 | TRUE | Adenosine | 
14 | CC(O)C(C)Nc1ncnc2[nH]ccc12 (centres unmarked) [AVI-5158] | 0.17 |  |  |  |  | 2 |  | TRUE | Adenosine | Occupancy difference (refined_occupancy - 2*(1-BDC)): 0; Refined ligand occupancy (%): 34%; PanDDA run, DMSO background map: 1-BDC (event 1): 0.17; 2*(1-BDC) (%) (occupancy estimate from PanDDA BDC): 34%
15 | O=C(O)C(F)(F)F.OCC1(Nc2ncnc3[nH]ccc23)CC1 [AVI-3688] | 0.2 | TRUE | TRUE | 0.2 | TRUE | 1 | 40 | TRUE | Adenosine | 
16 | OCC1CC2(CCC2)CN1c1ncnc2[nH]ccc12 (centres unmarked) [AVI-3728] | 0.24 |  |  |  |  | 2 | 48 |  |  | Pandda run, overall: Modeled [5]: TRUE; Pandda run, overall: Modeling comment [5]: Distal site, weak density, not modeled; Pandda run, overall: Hit [6]: TRUE; X-ray crystallography: Binding site: Adenosine; PanDDA run, DMSO background map: 1-BDC (soak concentration 10 mM): 0.24; PanDDA run, DMSO background map: Hit (soak concentration 10 mM): TRUE
17 | OC(c1ccccc1)C1CCCN1c1ncnc2[nH]ccc12 (centres unmarked) [AVI-3652] | 0.22 | TRUE | TRUE | 0.22 | TRUE | 1 | 44 |  |  | X-ray crystallography: Binding site: Adenosine
18 | OCC(Cc1nccs1)Nc1ncnc2[nH]ccc12 (centres unmarked) [AVI-3673] | 0.19 | TRUE | TRUE | 0.19 | TRUE | 1 | 38 | TRUE | Adenosine | 
19 | OCC(Nc1ncnc2[nH]ccc12)C1CCc2ccccc21 (centres unmarked) [AVI-3693] | 0.22 | TRUE | TRUE | 0.22 | TRUE | 2 | 44 | TRUE | Adenosine | 
